# Measured values as given in patent US20240425513A1, “OXAZOLE, OXADIAZOLE, AND INDOLE DERIVATIVES FOR THE INHIBITION OF USP28” (Carmot Therapeutics, Inc., priority 2021, published 2024).
# Molecular target: His6 USP28 (Homo sapiens (Human), UniProt Q96RU2)
# Assay: Ubiquitin-Rhodamine 110 assay to determine USP28 IC50
# Assay type: biochemical
# Conditions: USP28 150 pM, Ub-Rho110 41 nM, 2 h pre-incubation with enzyme, fluorescence read
# Description: Example 21. Ubiquitin-Rhodamine 110 Assay to Determine USP28 IC50
# Each assay was performed in a final volume of 8 μl in assay buffer containing 10 mM HEPES pH 7.3 ((1 M, pH 7.3 solution, (VWR J848), 100 mM NaCl (5 M, Corning 46-032-CV), 0.01% Triton X-100 (Sigma #T8787), 3.5 mM DTT (1 M, Sigma #43819) and 0.00375% BSA (10%, Calbiochem, #126609)). The assay buffer pH was adjusted to 7.5 using 1 N NaOH (JT Baker, #5000-03). Stock compounds were stored at −80° C. as a 25 mM in DMSO solution along with their respective 20 point 2 fold serial dilutions. For the dose responses, stock compound plates were allowed to come to room temperature the day of the assay. […] of the serial dilution series were pre stamped into assay plates (Black, high base, medium binding, Greiner #782076) for a final top screening concentration of 125 μM (DMSO final concentration=0.5%). Enzyme (His6 USP28, BostonBiochem, #E-570) concentration and incubation times were optimized for the maximal signal to background while maintaining the initial velocity conditions at a fixed substrate concentration. The final concentration of the enzyme in the assay was 150 pM. Final substrate (Ub-Rhol10, Ubiquitin-Rhodamine 110, UBPBio, #M3020) concentration was 41 nM. 2 μl of 4× enzyme was added to assay plates (pre stamped with compound) and incubated for 2 h at room temperature. […] was subsequently added to the assay plates and incubated for 2 h at room temperature. Fluorescence was then read on the Envision (Excitation 485 nm and Emission at 535 nm, Perkin Elmer).
# Chain of His6 USP28 (Q96RU2 whole entry): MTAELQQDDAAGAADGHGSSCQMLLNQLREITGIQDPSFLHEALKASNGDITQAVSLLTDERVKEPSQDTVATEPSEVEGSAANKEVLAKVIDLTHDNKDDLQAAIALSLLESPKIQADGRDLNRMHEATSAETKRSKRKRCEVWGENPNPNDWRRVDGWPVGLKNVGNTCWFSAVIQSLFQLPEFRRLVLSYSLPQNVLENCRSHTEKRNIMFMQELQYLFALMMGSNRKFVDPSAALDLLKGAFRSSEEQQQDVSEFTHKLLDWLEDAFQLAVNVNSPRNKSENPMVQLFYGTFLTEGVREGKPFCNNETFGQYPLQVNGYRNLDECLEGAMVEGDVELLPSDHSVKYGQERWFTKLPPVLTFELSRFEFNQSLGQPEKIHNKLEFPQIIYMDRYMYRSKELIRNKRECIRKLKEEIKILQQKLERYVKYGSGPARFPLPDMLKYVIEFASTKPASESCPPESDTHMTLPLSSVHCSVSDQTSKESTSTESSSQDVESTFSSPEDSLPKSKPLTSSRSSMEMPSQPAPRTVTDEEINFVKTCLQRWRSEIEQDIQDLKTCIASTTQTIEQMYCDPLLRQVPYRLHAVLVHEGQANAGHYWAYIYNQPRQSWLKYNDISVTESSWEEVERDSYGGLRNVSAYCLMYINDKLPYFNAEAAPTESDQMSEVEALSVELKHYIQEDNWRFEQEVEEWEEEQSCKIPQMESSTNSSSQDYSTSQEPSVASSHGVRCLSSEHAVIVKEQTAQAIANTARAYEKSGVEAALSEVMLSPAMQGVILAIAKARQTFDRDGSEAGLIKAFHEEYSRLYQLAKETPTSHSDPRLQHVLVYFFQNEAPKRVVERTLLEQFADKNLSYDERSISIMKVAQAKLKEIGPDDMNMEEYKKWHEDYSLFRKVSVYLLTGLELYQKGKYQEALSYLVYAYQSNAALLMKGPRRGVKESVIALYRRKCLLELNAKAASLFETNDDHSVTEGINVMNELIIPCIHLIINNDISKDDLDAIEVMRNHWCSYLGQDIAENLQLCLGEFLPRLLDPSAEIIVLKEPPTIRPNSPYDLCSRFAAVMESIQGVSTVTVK
row,SMILES,IC50 [nM]
1,"C[C@@H]1C[C@@H](NC(=O)COc2ccc(-c3nc(Cc4cccc(Cl)c4)no3)cc2)CN1C#N [Compound 3, 2-(4-(3-(3-Chlorobenzyl)-1,2,4-oxadiazol-5-yl)phenoxy)-N-((3R,5R)-1-cyano-5-methylpyrrolidin-3-yl)acetamide]",50 to 500
2,"C[C@@H]1C[C@@H](NC(=O)/C=C/c2ccc(-c3nc(Cc4cccc(Cl)c4)no3)cc2)CN1C#N [Compound 5, (E)-3-(4-(3-(3-Chlorobenzyl)-1,2,4-oxadiazol-5-yl)phenyl)-N-((3R,5R)-1-cyano-5-methylpyrrolidin-3-yl)acrylamide]",50 to 500
3,"C[C@@H]1C[C@@H](NC(=O)COc2ccc(-c3nc(Cc4cccc(C(F)(F)F)c4)no3)cc2)CN1C#N [Compound 6, N-[(3R,5R)-1-Cyano-5-methylpyrrolidin-3-y1]-2-[4-(3-{[3-(trifluoromethyl)phenyl]methyl}-1,2,4-oxadiazol-5-y1)phenoxy]acetamide]",50 to 500
4,"COc1cccc(Cc2noc(-c3ccc(OCC(=O)N[C@@H]4C[C@@H](C)N(C#N)C4)cc3)n2)c1 [Compound 7, N-[(3R,5R)-1-Cyano-5-methylpyrrolidin-3-yl]-2-(4-{3-[(3-methoxyphenyl)methyl]-1,2,4-oxadiazol-5-yl}phenoxy)acetamide]",> 1000
5,"C[C@@H]1C[C@@H](NC(=O)NCc2ccc(-c3nc(Cc4cccc(Cl)c4)no3)cc2)CN1C#N [Compound 10, 1-(4-(3-(3-Chlorobenzyl)-1,2,4-oxadiazol-5-yl)benzyl)-3-((3R,5R)-1-cyano-5-methylpyrrolidin-3-yl)urea]",50 to 500
6,"C[C@@H]1C[C@@H](NC(=O)COc2ccc(-c3nc(Cc4cccc(Cl)c4)no3)nc2)CN1C#N [Compound 12, 2-[(6-{3-[(3-Chlorophenyl)methyl]-1,2,4-oxadiazol-5-yl}pyridin-3-yl)oxy]-N-[(3R,5R)-1-cyano-5-methylpyrrolidin-3-yl]acetamide]",> 1000
7,"C/C(=C\c1ccc(-c2nc(Cc3cccc(Cl)c3)no2)cc1)C(=O)N[C@@H]1C[C@@H](C)N(C#N)C1 [Compound 13, (E)-3-(4-(3-(3-chlorobenzyl)-1,2,4-oxadiazol-5-yl)phenyl)-N-((3R,5R)-1-cyano-5-methylpyrrolidin-3-yl)-2-methylacrylamide]",500 to 1000
8,"Cc1oc(Cc2cccc(Cl)c2)nc1-c1ccc(/C=C/C(=O)N[C@@H]2C[C@@H](C)N(C#N)C2)cc1 [Compound 14, (E)-3-(4-(2-(3-Chlorobenzyl)-5-methyloxazol-4-yl)phenyl)-N-((3R,5R)-1-cyano-5-methylpyrrolidin-3-yl)acrylamide]",50 to 500

# Second part, the molecule after the results:
row,IC50 [nM],SMILES
1,> 1000,"N#CN1C[C@H](NC(=O)COc2ccc(-c3nc(Cc4ccccc4)no3)cc2)C[C@H]1CF [Compound 1, 2-[4-(3-Benzyl-1,2,4-oxadiazol-5-yl)phenoxy]-N-[(3R,5S)-1-cyano-5-(fluoromethyl)pyrrolidin-3-yl]acetamide]"
2,> 1000,"C[C@@H]1C[C@@H](NC(=O)COc2ccc(-c3nc(Cc4ccccc4)no3)cc2)CN1C#N [Compound 2, 2-[4-(3-Benzyl-1,2,4-oxadiazol-5-yl)phenoxy]-N-[(3R,5R)-1-cyano-5-methylpyrrolidin-3-yl]acetamide]"
3,50 to 500,"C[C@@H]1C[C@@H](NC(=O)COc2ccc(-c3nc(Cc4ccc(Cl)cc4)no3)cc2)CN1C#N [Compound 4, 2-(4-{3-[(4-Chlorophenyl)methyl]-1,2,4-oxadiazol-5-yl}phenoxy)-N-[(3R,5R)-1-cyano-5-methylpyrrolidin-3-yl]acetamide]"
4,500 to 1000,"C[C@@H]1C[C@@H](NC(=O)COc2ccc(-c3nc(Cc4cccc(C#N)c4)no3)cc2)CN1C#N [Compound 8, N-((3R,5R)-1-Cyano-5-methylpyrrolidin-3-yl)-2-(4-(3-(3-cyanobenzyl)-1,2,4-oxadiazol-5-yl)phenoxy)acetamide]"
5,50 to 500,"Cc1cccc(Cc2noc(-c3ccc(OCC(=O)N[C@@H]4C[C@@H](C)N(C#N)C4)cc3)n2)c1 [Compound 9, N-[(3R,5R)-1-Cyano-5-methylpyrrolidin-3-yl]-2-(4-{3-[(3-methylphenyl)methyl]-1,2,4-oxadiazol-5-yl}phenoxy)acetamide]"
